As usually defined, the IC50 is the midpoint of a concentration-inhibition curve. Lower therefore signals inhibition by little substance.

Molecules are shown by their SMILES. Bounds are passed on as bounds.

Sequence of Acetylcholinesterase (O42275 whole entry): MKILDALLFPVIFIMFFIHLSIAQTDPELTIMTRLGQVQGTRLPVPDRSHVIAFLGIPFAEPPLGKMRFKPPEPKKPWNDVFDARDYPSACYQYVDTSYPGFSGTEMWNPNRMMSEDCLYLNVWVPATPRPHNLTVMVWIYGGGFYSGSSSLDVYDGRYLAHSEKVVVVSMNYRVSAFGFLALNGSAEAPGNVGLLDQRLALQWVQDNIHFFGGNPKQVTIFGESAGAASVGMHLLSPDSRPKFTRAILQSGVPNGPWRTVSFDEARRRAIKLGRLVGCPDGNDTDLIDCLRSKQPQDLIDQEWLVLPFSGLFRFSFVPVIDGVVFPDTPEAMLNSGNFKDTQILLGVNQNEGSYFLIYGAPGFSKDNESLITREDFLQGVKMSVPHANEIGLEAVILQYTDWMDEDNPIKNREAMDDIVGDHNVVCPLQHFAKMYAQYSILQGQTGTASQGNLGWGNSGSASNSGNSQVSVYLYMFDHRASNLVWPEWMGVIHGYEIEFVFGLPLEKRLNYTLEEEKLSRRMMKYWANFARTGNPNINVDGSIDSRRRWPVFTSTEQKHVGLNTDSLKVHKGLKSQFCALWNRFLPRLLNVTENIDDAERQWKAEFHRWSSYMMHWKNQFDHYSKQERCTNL
T1 sequence (P81908 whole entry): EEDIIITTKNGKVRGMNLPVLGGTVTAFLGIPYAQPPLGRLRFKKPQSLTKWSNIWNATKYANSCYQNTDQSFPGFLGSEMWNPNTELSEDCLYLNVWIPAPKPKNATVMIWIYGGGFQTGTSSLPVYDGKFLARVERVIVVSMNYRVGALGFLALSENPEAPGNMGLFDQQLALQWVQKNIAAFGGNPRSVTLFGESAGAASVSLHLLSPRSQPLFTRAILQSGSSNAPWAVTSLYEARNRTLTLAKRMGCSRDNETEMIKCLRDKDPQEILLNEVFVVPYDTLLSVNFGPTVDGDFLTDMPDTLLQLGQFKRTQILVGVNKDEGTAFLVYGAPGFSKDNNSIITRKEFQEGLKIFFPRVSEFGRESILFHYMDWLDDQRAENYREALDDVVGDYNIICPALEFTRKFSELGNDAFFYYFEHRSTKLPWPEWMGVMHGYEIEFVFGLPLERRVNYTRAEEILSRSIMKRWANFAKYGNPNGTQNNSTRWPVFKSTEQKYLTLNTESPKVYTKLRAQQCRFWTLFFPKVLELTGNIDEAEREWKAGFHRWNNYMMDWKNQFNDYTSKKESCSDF

The first experiment concerns the target Acetylcholinesterase (Electrophorus electricus, UniProt O42275). The experiment can be described thus: Inhibition of electric eel AChE using acetylthiocholine iodide as substrate preincubated for 20 mins followed by substrate addition measured for 5 mins by spectrophotometry based Ellman method.
Conditions: not given
A general note: Ellman's reagent forms a yellow product with free thiols.
Turning to `COC(=O)CC1c2ccccc2N=C(N2CCN(C)CC2)N1C1CCCCC1` (configuration not stated), the IC50 was at least 10 µM.

`CN(C)CCCCCN(C)C1=Nc2c(F)cc(F)cc2C(CC(=O)NCc2ccccc2)N1c1ccc(-c2ccccc2)cc1` (configuration not stated): the IC50 was determined as 1.2 µM.

`CN(CCCCCN1CCCC1)C1=Nc2ccccc2C(CC(=O)NCc2ccccc2)N1c1ccc(-c2ccccc2)cc1` (configuration not stated) registered an IC50 of 6.6 µM.

In turn, `O=C(CC1c2cccc(F)c2N=C(N2CCN(CCN3CCCC3)CC2)N1c1ccc(C2CCCCC2)cc1)NCc1ccc(F)cc1` (configuration not stated) showed an IC50 above 10 µM.

`CN(C)CCCCCN(C)C1=Nc2ccccc2C(CC(=O)NCc2ccc(F)cc2)N1c1ccc(C2CCCCC2)cc1` (configuration not stated) had a half-maximal inhibitory concentration (IC50) of 4.4 µM.

`CN(CCCCCN)C1=Nc2ccccc2C(CC(=O)NCc2ccccc2)N1c1ccc(-c2ccccc2)cc1` (configuration not stated) gave an IC50 of 4.1 µM.

As to `CN(C)CCCCCN(C)C1=Nc2ccccc2C(CC(=O)NCc2ccccc2)N1c1ccc(-c2ccccc2)cc1` (configuration not stated), the IC50 is at least 10 µM.

In turn, `COc1ccc(CNC(=O)CC2c3ccccc3N=C(N3CCN(CCN(C)C)CC3)N2c2ccc(-c3ccccc3)cc2)cc1` (configuration not stated) showed an IC50 above 10 µM.

Consider `CN(C)CCCCCN(C)C1=Nc2ccccc2C(CC(=O)NCc2ccc(F)cc2)N1c1ccc(-c2ccc(F)cc2)cc1` (configuration not stated), for which half-maximal inhibition (IC50) required 6.5 µM.

`O=C(CC1c2ccccc2N=C(N2CCN(CCN3CCCC3)CC2)N1c1ccc(C2CCCCC2)cc1)NCc1ccc(F)cc1` (configuration not stated) displayed an IC50 of 8 µM.

The molecule `O=C(CC1c2ccccc2N=C(N2CCN(CCN3CCCC3)CC2)N1c1ccc(-c2ccccc2)cc1)NCc1ccc(F)cc1` (configuration not stated) returned an IC50 above 10 µM.

`CN1CCN(C2=Nc3ccccc3C(CC(=O)NCc3ccccc3)N2c2ccccc2)CC1` (configuration not stated) came in with a concentration for half-maximal inhibition (IC50) above 10 µM.

As to `CN(C)CCN1CCN(C2=Nc3ccccc3C(CC(=O)NCc3ccc(F)cc3)N2c2ccc(-c3ccccc3)cc2)CC1` (configuration not stated), the IC50 was at least 10 µM.

Molecule `COC(=O)CC1c2ccccc2N=C(N(C)CCCCCN)N1c1ccc(-c2ccccc2)cc1` (configuration not stated) had an IC50 of at least 10 µM.

A further experiment has as its target T1, Cholinesterase (Equus caballus, UniProt P81908). Nature of the experiment: Inhibition of equine serum BCHE using butyrylthiocholine iodide as substrate preincubated for 20 mins followed by substrate addition measured for 5 mins by spectrophotometry based Ellman method.
Conditions: not given
With `COC(=O)CC1c2ccccc2N=C(N2CCN(C)CC2)N1C1CCCCC1` (configuration not stated), the IC50 is above 10 µM.

`CN(C)CCCCCN(C)C1=Nc2c(F)cc(F)cc2C(CC(=O)NCc2ccccc2)N1c1ccc(-c2ccccc2)cc1` (configuration not stated) registered an IC50 of 0.38 µM.

Molecule `CN(CCCCCN1CCCC1)C1=Nc2ccccc2C(CC(=O)NCc2ccccc2)N1c1ccc(-c2ccccc2)cc1` (configuration not stated) gave an IC50 of 0.045 µM.

In turn, `O=C(CC1c2cccc(F)c2N=C(N2CCN(CCN3CCCC3)CC2)N1c1ccc(C2CCCCC2)cc1)NCc1ccc(F)cc1` (configuration not stated) gave an IC50 of 2.04 µM.

`CN(C)CCCCCN(C)C1=Nc2ccccc2C(CC(=O)NCc2ccc(F)cc2)N1c1ccc(C2CCCCC2)cc1` (configuration not stated) gave an IC50 of 0.4 µM.

`CN(CCCCCN)C1=Nc2ccccc2C(CC(=O)NCc2ccccc2)N1c1ccc(-c2ccccc2)cc1` (configuration not stated) registered an IC50 of 5.3 µM. This IC50 lies about 13-fold higher than the previous one.

Take `CN(C)CCCCCN(C)C1=Nc2ccccc2C(CC(=O)NCc2ccccc2)N1c1ccc(-c2ccccc2)cc1` (configuration not stated): inhibition was half-maximal at 0.062 µM (IC50).

Consider `COc1ccc(CNC(=O)CC2c3ccccc3N=C(N3CCN(CCN(C)C)CC3)N2c2ccc(-c3ccccc3)cc2)cc1` (configuration not stated), for which the IC50 came out at 6.1 µM.

The molecule `CN(C)CCCCCN(C)C1=Nc2ccccc2C(CC(=O)NCc2ccc(F)cc2)N1c1ccc(-c2ccc(F)cc2)cc1` (configuration not stated) registered an IC50 of 0.24 µM.

Take `O=C(CC1c2ccccc2N=C(N2CCN(CCN3CCCC3)CC2)N1c1ccc(C2CCCCC2)cc1)NCc1ccc(F)cc1` (configuration not stated): the IC50 is 2.13 µM.

`O=C(CC1c2ccccc2N=C(N2CCN(CCN3CCCC3)CC2)N1c1ccc(-c2ccccc2)cc1)NCc1ccc(F)cc1` (configuration not stated) had an IC50 of 1.47 µM.

In turn, `CN1CCN(C2=Nc3ccccc3C(CC(=O)NCc3ccccc3)N2c2ccccc2)CC1` (configuration not stated) gave an IC50 above 10 µM.

Regarding `CN(C)CCN1CCN(C2=Nc3ccccc3C(CC(=O)NCc3ccc(F)cc3)N2c2ccc(-c3ccccc3)cc2)CC1` (configuration not stated), inhibition was half-maximal at 2.6 µM (IC50).

Take `COC(=O)CC1c2ccccc2N=C(N(C)CCCCCN)N1c1ccc(-c2ccccc2)cc1` (configuration not stated): the IC50 is 0.14 µM.

In the next experiment the target is T1, Cholinesterase. Nature of the experiment: Mixed/noncompetitive inhibition of equine serum BCHE using butyrylthiocholine iodide as substrate preincubated for 20 mins followed by substrate addition measured for 5 mins by Lineweaver-Burk plot analysis. The settings on record: read-out: Ki(app).
`CN(CCCCCN1CCCC1)C1=Nc2ccccc2C(CC(=O)NCc2ccccc2)N1c1ccc(-c2ccccc2)cc1` (configuration not stated): the Ki was 0.029 µM.

With `CN(C)CCCCCN(C)C1=Nc2ccccc2C(CC(=O)NCc2ccccc2)N1c1ccc(-c2ccccc2)cc1` (configuration not stated), the Ki is 0.051 µM.

Test system in the next experiment: not listed separately
The experiment can be described thus: Selectivity ratio of IC50 for electric eel AChE to IC50 for equine serum BCHE.
Conditions: not given
Regarding `CN(CCCCCN1CCCC1)C1=Nc2ccccc2C(CC(=O)NCc2ccccc2)N1c1ccc(-c2ccccc2)cc1` (configuration not stated), the Ratio IC50 was 146.

Consider `CN(C)CCCCCN(C)C1=Nc2ccccc2C(CC(=O)NCc2ccccc2)N1c1ccc(-c2ccccc2)cc1` (configuration not stated), for which the Ratio IC50 amounted to 161.

The values are drawn from ChEMBL document CHEMBL3994657, “3,4-Dihydroquinazoline derivatives inhibit the activities of cholinesterase enzymes” (Bioorg Med Chem Lett, 2017).
